Patent US20080045796A1, “HISTOFLUORESCENT STAIN COMPOSITION FOR ENDOSCOPY” (PENTAX CORPORATION, priority 2006, published 2008)

Tests used:
[1] = Measurement of absorption spectrum and fluorescence excitation spectrum; type: physicochemical
Method: Measurement of an absorption spectrum and a fluorescence excitation spectrum of Fast Green FCF was performed. The Fast Green FCF (Wako Pure Chemical Industries, Ltd.) was adjusted to 1.0 mg/ml, and the light absorbance was continuously measured at a wavelength of from 200 to 750 nm using a spectrophotometer (manufactured by Shimadzu Corp., BioSpec-1600) to determine the wavelength at which the absorbance reached the maximum. The maximum absorption wavelength of 628 nm thus obtained was irradiated as an excitation wavelength, and the wavelength of the scattered light detected in the perpendicular direction to the light axis of the excitation light was measured using a fluorescence spectrophotometer (manufactured by Shimadzu Corp., RF-1500), thus to obtain a maximum excitation wavelength of 628 nm and a maximum fluorescence wavelength of 652 nm.

[2] = system: mouse large intestine; experiment: Confocal microscope observation of extracted large intestine piece stained with the stain (stain specificity)
Method: In order to find the stain specificity of the stain, Fast Green FCF (Wako Pure Chemical Industries, Ltd.) was diluted to a 2.0 mg/mL preparation using a 0.1 M sodium phosphate buffer solution (pH 7), and observation was performed using a confocal microscope (Leica Microsystems Corp., TCS-SP2).
For the sample, a mouse was subjected to laparotomy to extract the large intestine, which was then cut into a piece of 1 cm at every edge and stained with the stain.
The diameter of the confocal pinhole was 1.00 airy, and an oil immersion lens of 63 magnifications was used.
Staining was performed by immersion in the same manner as in Example 2, excitation was induced at a wavelength of 488 nm, and the fluorescent images were observed.
The conditions for the confocal microscope were the same, except for the wavelength of the irradiated laser.

[3] = system: large intestine of a mouse; experiment: Stainability: stain solution injected into large intestine, confocal cross-section of the lumen; details: 1.0 mg/mL, pH 6, 100 μL injected; images at every 5.0 μm from the luminal surface
Method: Fast Green FCF was prepared to 1.0 mg/mL using a 0.1 M sodium phosphate buffer solution (pH 6), and 100 μL of the stain solution was injected into the large intestine of a mouse (ddY, 11 weeks old, male). To stain the large intestine evenly while preventing outflow of the stain, the mouse was subjected to laparotomy, and the stain was injected while clipping the upward colon side and the downward colon side of the extracted large intestine with hemostatic clips.
The imaging conditions were such that the diameter of the confocal pinhole was 1.00 airy, and a lens of 20 magnifications was used.

[4] = system: large intestine extracted from a mouse; experiment: Stainability and tissue penetrability, fluorescence observation of frozen sections; details: 6 μm frozen sections, stained as in Example 3
Description: The stainability and tissue penetrability of Fast Green FCF (Fast Green GCF, Wako Pure Chemical Industries, Ltd.) were checked by observation of a tissue specimen.
A tissue specimen of the large intestine extracted from a mouse, which had been stained in the same manner as in Example 3, was embedded in an OCT Compound (Sakura Finetek Corp., Tissue-Tek O.C.T. compound), and was frozen by rapidly cooling with dry ice. The frozen section was sliced into 6 μm to prepare frozen sections, and fluorescence observation was performed. The fluorescence observation was performed using a confocal microscope (Leica Microsystems Corp., TCP-SP2) (imaging conditions: using a lens of 40 magnifications, pinhole diameter 171.3 μm).
A tissue section which was similarly embedded in the OCT compound was HE-stained, and the observation result is shown in FIG. 9 as a Comparative Example.

[5] = system: Duodenum; experiment: Tail vein administration, stainability for different regions: duodenum; type: in vivo, mouse
Method: (§1) An evaluation of the tissue stain composition of the present invention was performed for the stainability for different regions. Duodenum, large intestine and liver were extracted and observed.
(§2) Fast Green FCF was prepared to 10 mg/mL using physiological saline at pH 6.0. 100 μL of the prepared Fast Green FCF was administered to a mouse (ddY, 11 weeks old, male) through the tail vein, and the mouse was subjected to laparotomy after 5 minutes. The penetrability was observed by naked eyes, and the stainability and fluorescence were observed using a confocal microscope (Leica Microsystems Corp., TCP-SP2).
The conditions for the confocal microscopic observation were such that the diameter of the confocal pinhole was 1.00 airy, and an oil immersion lens of 63 magnifications was used.

[6] = system: large intestine; experiment: Tail vein administration, stainability for different regions: large intestine; type: in vivo, mouse; details: 10 mg/mL, 100 μL tail vein, laparotomy after 5 minutes
Method: as §1, §2
(§3) The conditions for the confocal microscopic observation were such that the diameter of the confocal pinhole was 1.00 airy, and a cross-sectional image of an area about 10 μm deep from the luminal surface, which image was taken using an oil immersion lens of 63 magnifications, is presented in FIG. 11.

[7] = system: liver; experiment: Tail vein administration, stainability for different regions: liver; type: in vivo, mouse
Method: as §1, §2
as §3, with “Furthermore, the surrounding septum was more strongly stained. The” for “The”, “area” for “area about”, “12.” for “11.”

[8] = system: tumor tissue developed in the upper part of the ovary of a rat; experiment: Extracted tumor tissue immersed in stain, confocal microscope observation (single and double staining)
Method: Fast Green FCF was prepared to 1.0 mg/mL using a 0.1 M sodium phosphate buffer solution (pH 7).
The tumor tissue of the rat was extracted and immersed in the prepared stain for 5 minutes to stain the tissue. The remaining unpenetrated portion of the Fast Green was washed off with a 0.1 M sodium phosphate buffer solution (pH 6), and observation was made using a confocal microscope.
The observation conditions were such that the pinhole diameter was 1.00 airy, and an oil immersion lens of 63 magnifications was used.
To verify the stainability at a tumor part, Monascus Yellow was used together with Fast Green FCF to perform double staining. The Monascus Yellow was prepared to 1.0 mg/mL using a 0.1 M sodium phosphate buffer solution (pH 6).

[9] = 10 mg/mL, 100 μL tail vein, laparotomy after 5 minutes

can be excited at, for example [1]: 628 nm
fluorescence detected at [1]: 652 nm
maximum absorption wavelength ([1]; 1.0 mg/ml, spectrophotometer 200 to 750 nm): 628 nm
maximum excitation wavelength ([1]; fluorescence spectrophotometer): 628 nm
maximum fluorescence wavelength ([1]; fluorescence spectrophotometer): 652 nm
SMILES: CCN(Cc1cccc(S(=O)(=O)[O-])c1)c1ccc(C(=C2C=CC(=[N+](CC)Cc3cccc(S(=O)(=O)[O-])c3)C=C2)c2ccc(O)cc2S(=O)(=O)[O-])cc1.[Na+].[Na+] [Fast Green FCF]
fluorescent contrast in confocal image ([2]; 2.0 mg/mL, pH 7, He-Ne laser 633 nm, fluorescence 650 to 750 nm): provided fluorescent contrast to the images of the intercellular space of the mucosal epithelium of the large intestine
chromophilic regions, Fast Green FCF versus Fluorescite ([2]; Fluorescite excited at 488 nm, single and double-stained images): the stain and Fluorescite had different chromophilic regions
fluorescent contrast in confocal cross-sectional images [3]: provides good fluorescent contrast for the lamina propria mucosae
fluorescent contrast in frozen section, compared with HE staining [4]: provided good fluorescent contrast for the lamina propria mucosae
staining site under confocal microscope [5, 9]: Strong staining was achieved not in the cytoplasm but in the cellular membrane or intercellular space
staining visible by naked eyes [5, 9]: stained in deep-green color to an extent of being clearly visible by naked eyes
fluorescent contrast under a confocal microscope ([5]; epithelial cells): provides clear fluorescent contrast for the shape of the epithelial cells
contrast under a white light source ([5]; small intestinal villi): conferred contrast such that observation of the small intestinal villi under a white light source became feasible
color change visible by naked eyes [6]: did not show color changes that were clear enough to be visible by naked eyes
penetration of the dye [6]: the dye penetrated sufficiently to the extent that imaging by a confocal imaging system was possible
staining site under confocal microscope [6]: The intercellular space near the luminal surface, and the lamina propria mucosae were well stained
staining site under confocal microscope [7, 9]: not only the intercellular space and cellular membrane as observed in the duodenum or large intestine but also the lobular parts were stained
fluorescent contrast under confocal microscope ([7]; connective tissue in the liver): provided good contrast for the Glisson's capsule
fluorescent contrast in confocal images ([8]; 1.0 mg/mL, pH 7, immersed 5 minutes): provided good fluorescent contrast for the connective tissue fibers in the tumor tissue
staining site in double staining ([8]; Monascus Yellow 1.0 mg/mL pH 6 together with Fast Green FCF): slightly stained the cells but more strongly stained the fibrous part
